Measured values published in US8937095B2, “Anticancer compounds” (Boehringer Ingelheim International GmbH, priority 2012, dated 2015).

Tests used:
A375 cells = test: Proliferation assay (CyQuant Direct), A375 cells; type: cell-based; conditions: Homo sapiens, A-375; 72 hour incubation; read-out: GI50 antiproliferative effect on A375 cells
Procedure: (§1) Experimental Procedure of Proliferation Assay:
(§2) A375 and Calu6 cells are grown in RPMI1640, 10% FBS, in a humidified atmosphere of 5% CO2 at 37° C. Cells are seeded into flat bottom 96 well microtiter plates and incubated in a humidified atmosphere of 5% CO2 at 37° C. for 24 hours. Compounds are added, at the same time, a “time zero” untreated cell plate is stained and measured after 1 h. Compounds are serially diluted 5-fold from the highest test concentration (10 μM) and assayed over 8 concentrations in duplicates. The concentration of the solvent DMSO in the final culture is 0.1%. After a 72 hour incubation period, cells are stained with fluorescent nuclear dye to allow visualization of nuclei (CyQuant Direct Cell Proliferation Assay, Invitrogen Cat. No. C35012). Total fluorescence intensity of each well is measured using an Envision platform with excitation at 480 nm, emission detection at 535 nm. The assay signal correlates to the number of nuclei and thus, by definition, to the number of cells in the culture well (“cell count”).
(§3) The cell proliferation assay output for control cells after 72 hours of incubation, corresponding to 100% cell proliferation, is taken as the reference cell count for all subsequent calculations. Relative cell proliferation in compound-treated cultures (signal percent of control, “POC”) is calculated according to the following formula: POC(t=72 h)=100*fluorescence(compound wells)/fluorescence(control wells)
(§4) In addition, for each compound-treated culture, the cell count after incubation for 72 hours (POC(t=72h)) is related to the cell count at the start of treatment (POC(t=0 h)): POC(t=0 h)=100*fluorescence at t=0(control wells)/fluorescence at t=72 h(control wells)
(§5) The concentration-response curves were calculated using the dose-response package (drc versio 2.0-1 http://cran.rproject.org/web/packages/drc/index.html) from R (version 2.10.1 http://www.r-project.org/). […]
(§6) Relative cell growth inhibition (CGI %) in compound-treated cultures is calculated according to the following formula: […]

Calu6 cells = test: Proliferation assay (CyQuant Direct), Calu6 cells; type: cell-based; conditions: Homo sapiens, Calu-6; 72 hour incubation; read-out: GI50 antiproliferative effect on Calu6 cells
Procedure: as §1, §2, §3, §4, §5, §6

CCNC(=O)C#Cc1ccc2c(c1)NC(=O)/C2=C(\Nc1ccc(CN(C)C)cc1)c1ccccc1 [Compound 6, 3-[3-[[4-(dimethylaminomethyl)anilino]-phenylmethylidene]-2-oxo-1H-indol-6-yl]-N-ethylprop-2-ynamide]
GI50 (A375 cells): 2.7 nM | GI50 (Calu6 cells): 7.66 nM

CCNC(=O)C#Cc1ccc2c(c1)NC(=O)/C2=C(\Nc1ccc(C[N+](C)(C)[O-])cc1)c1ccccc1 [Compound 27, 3-[3-[[4-(dimethyloxidoaminomethyl)anilino]-phenylmethylidene]-2-oxo-1H-indol-6-yl]-N-ethylprop-2-ynamide]
GI50 (A375 cells): 17.3 nM | GI50 (Calu6 cells): 11.3 nM

CCNC(=O)C#Cc1ccc2c(c1)NC(=O)/C2=C(\Nc1ccc(CNC)cc1)c1ccccc1 [Compound 26, 3-[3-[[4-(methylaminomethyl)anilino]-phenylmethylidene]-2-oxo-1H-indol-6-yl]-N-ethylprop-2-ynamide]
GI50 (A375 cells): 3.37 nM | GI50 (Calu6 cells): 7.82 nM
